From article PMC6691192 (Chemical communications (Cambridge, England), 2019)

Tested on: non-cancerous human breast cell line MCF-10A
Assay: Cell viability assay
Type: cell-based
Settings: for EC50(C)/EC50 (B): selectivity ratio MCF-10A over BT-474; for EC50(C)/EC50(A): selectivity ratio MCF-10A over MCF-7

Row | Compound | EC50(C)/EC50 (B) | EC50(C)/EC50(A)
1 | [Cl][Au].c1ccc(P(c2ccccc2)c2ccccc2)cc1 [[AuCl(PPh3)]] | 5.70 ± 0.43 | 5.30 ± 0.61
2 | CC[P](CC)(CC)=[Au][S][C@@H]1O[C@H](COC(C)=O)[C@@H](OC(C)=O)[C@H](OC(C)=O)[C@H]1OC(C)=O [AF, [(2R,3R,4S,5R,6S)-3,4,5-tris(acetyloxy)-6-{[(triethyl-λ5-phosphanylidene)aurio]sulfanyl}oxan-2-yl]methyl acetate] | 0.81 ± 0.13 | 0.78 ± 0.11
3 | [Au(mba)(PPh3)] | 1.57 ± 0.13 | 2.34 ± 0.35
